Experiment [1] has as its target Ubiquitin-conjugating enzyme E2 N/Ubiquitin-conjugating enzyme E2 variant 1 (Homo sapiens) (UniProt Q13404+P61088). Nature of the experiment: Ratio of leucettamol A IC50 to compound IC50 for recombinant human Ubc13-Uev1A interaction expressed in Escherichia BL21.
The target in experiment [2] is Ubiquitin-conjugating enzyme E2 N/Ubiquitin-conjugating enzyme E2 variant 1 (Homo sapiens, UniProt P61088+Q13404). Put plainly: Inhibition of recombinant human Ubc13-Uev1A interaction expressed in Escherichia BL21 after 1.5 hrs by ELISA. (In general: In an ELISA, binding on a coated surface is turned into a signal by an enzyme label.)

Each structure is given as a SMILES string.

On to `CC1=CC(C)(C)[C@@H](/C=C\[C@@H](C)[C@H]2CC[C@H]3[C@@H]4C[C@H](OS(=O)(=O)O)[C@H]5C[C@H](O)[C@@H](OS(=O)(=O)O)C[C@]5(C)[C@H]4CC[C@]23C)[C@H]1CC[C@@H](C)[C@H]1CC[C@H]2[C@@H]3C[C@H](OS(=O)(=O)O)[C@H]4C[C@H](OS(=O)(=O)O)[C@@H](OS(=O)(=O)O)C[C@]4(C)[C@H]3CC[C@]12C` [MANADOSTEROL A], for which, in experiment [1], the Ratio IC50 was 1000. For the same compound, the half-inhibitory concentration (IC50) in experiment [2] is 90 nM.

For `C=C1CC(C)(C)[C@@H](/C=C/[C@@H](C)[C@H]2CC[C@H]3[C@@H]4C[C@H](OS(=O)(=O)O)[C@H]5C[C@@H](O)CC[C@]5(C)[C@H]4CC[C@]23C)[C@H]1CC(O)[C@@H](C)[C@H]1CC[C@H]2[C@@H]3C[C@H](OS(=O)(=O)O)[C@H]4C[C@H](OS(=O)(=O)O)[C@@H](OS(=O)(=O)O)C[C@]4(C)[C@H]3CC[C@]12C` (stereo partly drawn) [MANADOSTEROL B], the IC50 in experiment [2] is 130 nM.

By IC50 is commonly meant the concentration that gives 50% inhibition.

For the origin of these results see ChEMBL document CHEMBL2086306, “Manadosterols A and B, sulfonated sterol dimers inhibiting the Ubc13-Uev1A interaction, isolated from the marine sponge Lissodendryx fibrosa” (J Nat Prod, 2012).
